# Values quoted from earlier work, collected in patent US20090239878A1, “COMBINATIONS OF (A) AN ATP-COMPETITIVE INHIBITOR OF C-ABL KINASE ACTIVITY WITH (B) TWO OR MORE OTHER ANTINEOPLASTIC AGENTS” (priority 2002, published 2009).
# What was measured:
# [1] = test system: CEM/ara-C/I monoclonal clone; conditions: ara-C resistant cell line versus CEM/0
# c-kit receptor = c-kit receptor (Homo sapiens, UniProt P10721); conditions: preclinical studies
# [2] = test system: platelet-derived growth factor receptor; conditions: preclinical studies
# Chain of c-kit receptor (P10721 26-976): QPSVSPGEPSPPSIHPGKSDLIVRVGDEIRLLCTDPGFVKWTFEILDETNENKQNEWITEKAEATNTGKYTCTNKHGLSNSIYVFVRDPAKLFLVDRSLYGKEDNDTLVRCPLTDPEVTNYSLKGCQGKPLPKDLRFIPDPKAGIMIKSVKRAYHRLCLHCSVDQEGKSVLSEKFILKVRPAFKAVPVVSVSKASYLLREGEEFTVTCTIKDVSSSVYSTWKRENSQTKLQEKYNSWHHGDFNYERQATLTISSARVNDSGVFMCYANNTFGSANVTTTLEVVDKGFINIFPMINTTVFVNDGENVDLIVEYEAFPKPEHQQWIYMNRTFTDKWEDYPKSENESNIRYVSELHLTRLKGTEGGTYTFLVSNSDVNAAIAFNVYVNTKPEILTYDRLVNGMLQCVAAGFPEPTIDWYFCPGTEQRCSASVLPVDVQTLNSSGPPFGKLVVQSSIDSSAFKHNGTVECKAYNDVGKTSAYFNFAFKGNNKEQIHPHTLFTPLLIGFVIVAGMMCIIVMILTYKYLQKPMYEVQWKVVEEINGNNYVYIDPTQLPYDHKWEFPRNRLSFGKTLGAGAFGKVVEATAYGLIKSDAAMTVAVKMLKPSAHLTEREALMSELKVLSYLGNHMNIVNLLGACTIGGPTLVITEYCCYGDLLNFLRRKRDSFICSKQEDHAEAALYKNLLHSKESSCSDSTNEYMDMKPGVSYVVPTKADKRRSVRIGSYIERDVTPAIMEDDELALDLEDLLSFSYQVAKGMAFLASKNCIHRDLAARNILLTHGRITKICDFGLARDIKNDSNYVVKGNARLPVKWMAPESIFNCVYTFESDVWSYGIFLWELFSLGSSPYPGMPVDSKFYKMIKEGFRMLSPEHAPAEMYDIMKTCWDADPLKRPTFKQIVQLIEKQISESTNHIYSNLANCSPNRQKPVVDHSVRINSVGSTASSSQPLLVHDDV
inhibition of kinase activity (c-kit receptor),Molecule,sensitivity to ara-C relative to wild type [1],inhibition of kinase activity [2]
,"Nc1ccn([C@@H]2O[C@H](CO)[C@@H](O)[C@@H]2O)c(=O)n1 [ara-C, cytosine arabinoside]",less than 1 % of the wild type CEM/0 cell line,
inhibits the kinase activities,N-{5-[4-(4-methyl-piperazino-methyl)-benzoylamido]-2-methylphenyl}-4-(3-pyridyl)-2-pyrimidine-amine [STI571],,inhibits the kinase activities
